Among the data in patent publication US11149018B2, “Substituted N-arylethyl-2-aminoquinoline-4-carboxamides and use thereof” (Bayer Aktiengesellschaft, priority 2017, dated 2021) are IC50 values, retold here.

The test addresses FP receptor (Homo sapiens (Human), UniProt P43088). Put plainly: In vitro test of inhibition of human FP receptor activity (PGF2α-induced calcium flux in FP-expressing CHEM1 cells). It counts as cell-based. Particulars: PGF2α 2 nM, some mean values of multiple determinations. Here is the method:
B-1. In Vitro Test of Inhibition of Human FP Receptor Activity
For the characterization of test substances in respect of FP antagonism, PGF2α-induced calcium flux in FP-expressing CHEM1 cells (Millipore, HTS093C) was used.
10 μl of the prediluted substance solution are added to the Fluo-8-laden cells and incubated at 37° C., 5% CO2 for 10 minutes. The FP receptor is activated by adding 40 μl of 2 nM (final concentration) PGF2α in calcium-free Tyrode, 2 mM CaCl2, 0.002% SmartBlock, and the calcium flux is determined by measuring the fluorescence at ex. 470 nm/[…].
Table 1 below lists the IC50 values from this assay for individual working examples of the invention (some as mean values from multiple independent individual determinations): […]
(In general: A change in cytosolic calcium serves as a functional read-out for many receptors and channels.)

Sequence of FP receptor (P43088 whole entry): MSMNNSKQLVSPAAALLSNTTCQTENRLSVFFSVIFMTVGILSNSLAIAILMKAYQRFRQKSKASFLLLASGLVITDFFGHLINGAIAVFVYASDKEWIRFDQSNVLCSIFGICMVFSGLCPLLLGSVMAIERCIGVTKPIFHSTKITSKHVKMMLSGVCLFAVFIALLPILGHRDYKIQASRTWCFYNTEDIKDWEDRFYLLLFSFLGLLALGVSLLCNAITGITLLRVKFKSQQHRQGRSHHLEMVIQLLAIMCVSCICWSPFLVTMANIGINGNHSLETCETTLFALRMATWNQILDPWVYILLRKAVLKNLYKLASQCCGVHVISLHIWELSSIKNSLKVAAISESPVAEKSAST

As usually defined, the IC50 is the concentration that gives 50% inhibition. Regarding `Cc1c(N2CCCC(F)C2)nc2ccc(Br)cc2c1C(=O)NCC(CCC(=O)O)c1c(F)ccc(F)c1Cl` (centres unmarked) [Example 156, 5-[({6-Bromo-2-[3-fluoropiperidin-1-yl]-3-methylquinolin-4-yl}carbonyl)amino]-4-(2-chloro-3,6-difluorophenyl)pentanoic acid], the IC50 is 2.5 nM.

Turning to `Cc1c(N2CCCC(F)(F)C2)nc2ccc(Br)cc2c1C(=O)NCC(CCC(=O)O)c1ccccc1OC(F)(F)F` (single isomer, unassigned; (-)) [Example 133, (−)-5-({[6-Bromo-2-(3,3-difluoropiperidin-1-yl)-3-methylquinolin-4-yl]carbonyl}amino)-4-[2-(trifluoromethoxy)phenyl]pentanoic acid], the IC50 came out at 2 nM.

In the case of `Cc1c(N2CCCC2)nc2ccc(Br)cc2c1C(=O)NCC(CCC(=O)O)c1cc(F)ccc1F` (racemic) [Example 258, (+/−)-5-({[6-Bromo-3-methyl-2-(pyrrolidin-1-yl)quinolin-4-yl]carbonyl}amino)-4-(2,5-difluorophenyl)pentanoic acid], the IC50 was 80 nM.

In the case of `Cc1c(N2CCCC(F)(F)C2)nc2ccc(Br)cc2c1C(=O)NCC(CCC(=O)O)c1ccccc1Cl` (single isomer, unassigned; (+)) [Example 52, (+)-5-({[6-Bromo-2-(3,3-difluoropiperidin-1-yl)-3-methylquinolin-4-yl]carbonyl}amino)-4-(2-chlorophenyl)pentanoic acid], the IC50 was 7.1 nM.

Consider `[2H]C1([2H])N(c2nc3ccc(Br)cc3c(C(=O)NCC(CCC(=O)O)c3ccccc3OC(F)(F)F)c2C)C([2H])([2H])C([2H])([2H])C([2H])([2H])C1([2H])[2H]` (single isomer, unassigned; (+)) [Example 271, (+)-5-[({6-Bromo-3-methyl-2-[(^2H10)piperidin-1-yl]quinolin-4-yl}carbonyl)amino]-4-[2-(trifluoromethoxy)phenyl]pentanoic acid], for which the IC50 came out at 6.3 nM.

Turning to `Cc1ccccc1C(CCC(=O)O)CNC(=O)c1c(C)c(N2CCCC2)nc2ccc(Br)cc12` (single isomer, unassigned; (-)) [Example 234, (−)-5-({[6-Bromo-3-methyl-2-(pyrrolidin-1-yl)quinolin-4-yl]carbonyl}amino)-4-(2-methylphenyl)pentanoic acid], the IC50 worked out at 8.9 nM.

Turning to `Cc1c(N2CCCCC2)nc2ccc(Br)cc2c1C(=O)NCC(CCC(=O)O)c1c(Cl)ccc(Cl)c1Cl` (single isomer, unassigned; (-)) [Example 173, (−)-5-({[6-Bromo-3-methyl-2-(piperidin-1-yl)quinolin-4-yl]carbonyl}amino)-4-(2,3,6-trichlorophenyl)pentanoic acid], the IC50 came to 2.2 nM.

As for `Cc1c(N2CCCC(C)C2)nc2ccc(Br)cc2c1C(=O)NCC(CCC(=O)O)c1c(F)ccc(F)c1Cl` (centres unmarked) [Example 157, 5-[({6-Bromo-3-methyl-2-[3-methylpiperidin-1-yl]quinolin-4-yl}carbonyl)amino]-4-(2-chloro-3,6-difluorophenyl)pentanoic acid], the IC50 stood at 1.7 nM.

`Cc1c(N2CCOCC2)nc2ccc(Br)cc2c1C(=O)NCC(CCC(=O)O)c1cc(F)ccc1Cl` (racemic) [Example 9, (+/−)-5-({[6-Bromo-3-methyl-2-(morpholin-4-yl)quinolin-4-yl]carbonyl}amino)-4-(2-chloro-5-fluorophenyl)pentanoic acid]: the IC50 was 290 nM.

`CCC1CCCN(c2nc3ccc(Br)cc3c(C(=O)NCC(CCC(=O)O)c3ccccc3Cl)c2C)C1` (single isomer, unassigned; (-)) [Example 60, (−)-5-[({6-Bromo-2-[3-ethylpiperidin-1-yl]-3-methylquinolin-4-yl}carbonyl)amino]-4-(2-chlorophenyl)pentanoic acid]: the IC50 is 7.5 nM.

As for `Cc1c(N2CCCC(F)(F)C2)nc2ccc(Br)cc2c1C(=O)NCC(CCC(=O)O)c1ccccc1Cl` (racemic) [Example 50, (+/−)-5-({[6-Bromo-2-(3,3-difluoropiperidin-1-yl)-3-methylquinolin-4-yl]carbonyl}amino)-4-(2-chlorophenyl)pentanoic acid], the IC50 was found to be 3 nM.

For `Cc1c(N2CCCC(F)(F)C2)nc2ccc(Br)cc2c1C(=O)NCC(CCC(=O)O)c1cc(F)ccc1F` (single isomer, unassigned; (-)) [Example 262, (−)-5-({[6-Bromo-2-(3,3-difluoropiperidin-1-yl)-3-methylquinolin-4-yl]carbonyl}amino)-4-(2,5-difluorophenyl)pentanoic acid], the IC50 stood at 18 nM.

As for `Cc1c(N2CCCCC2)nc2ccc(Br)cc2c1C(=O)NCC(CCC(=O)O)c1cccc(F)c1Cl` (single isomer, unassigned; (+)) [Example 143, (+)-5-({[6-Bromo-3-methyl-2-(piperidin-1-yl)quinolin-4-yl]carbonyl}amino)-4-(2-chloro-3-fluorophenyl)pentanoic acid], the IC50 was 9.3 nM.

`Cc1c(N2CCCC(F)C2)nc2ccc(Br)cc2c1C(=O)NCC(CCC(=O)O)c1ccccc1Cl` (centres unmarked) [Example 78, 5-[({6-Bromo-2-[3-fluoropiperidin-1-yl]-3-methylquinolin-4-yl}carbonyl)amino]-4-(2-chlorophenyl)pentanoic acid]: the IC50 was 4.4 nM.

`Cc1c(N2CCCC(F)C2)nc2ccc(Br)cc2c1C(=O)NCC(CCC(=O)O)c1ccccc1C(F)(F)F` (centres unmarked) [Example 123, 5-[({6-Bromo-2-[3-fluoropiperidin-1-yl]-3-methylquinolin-4-yl}carbonyl)amino]-4-[2-(trifluoromethyl)phenyl]pentanoic acid]: the IC50 was 13 nM.

Take `Cc1c(N2CCCCC2)nc2ccc(Br)cc2c1C(=O)NCC(CCC(=O)O)c1c(F)cccc1OC(F)F` (racemic) [Example 182, (+/−)-5-({[6-Bromo-3-methyl-2-(piperidin-1-yl)quinolin-4-yl]carbonyl}amino)-4-[2-(difluoromethoxy)-6-fluorophenyl]pentanoic acid]: the IC50 was 2.9 nM.

With `Cc1c(N2CCCCC2)nc2ccc(Br)cc2c1C(=O)NCC(CCC(=O)O)c1ccccc1OC(F)(F)F` (single isomer, unassigned; (+)) [Example 128, (+)-5-({[6-Bromo-3-methyl-2-(piperidin-1-yl)quinolin-4-yl]carbonyl}amino)-4-[2-(trifluoromethoxy)phenyl]pentanoic acid], the IC50 was 3.8 nM.

Turning to `Cc1c(N2CCCCC2)nc2ccc(Br)cc2c1C(=O)NCC(CCC(=O)O)c1cc(F)ccc1Cl` (single isomer, unassigned; (+)) [Example 7, (+)-5-({[6-Bromo-3-methyl-2-(piperidin-1-yl)quinolin-4-yl]carbonyl}amino)-4-(2-chloro-5-fluorophenyl)pentanoic acid], the IC50 turned out to be 6.6 nM.

For the molecule `Cc1c(N2CCCC(C)C2)nc2ccc(Br)cc2c1C(=O)NCC(CCC(=O)O)c1ccccc1Cl` (single isomer, unassigned; (-)) [Example 46, (−)-5-[({6-Bromo-3-methyl-2-[3-methylpiperidin-1-yl]quinolin-4-yl}carbonyl)amino]-4-(2-chlorophenyl)pentanoic acid], the 50% inhibitory concentration (IC50) was determined as 1.3 nM.

As for `CCC1CCCN(c2nc3ccc(Br)cc3c(C(=O)NCC(CCC(=O)O)c3cc(F)ccc3F)c2C)C1` (racemic) [Example 225, 5-[({6-Bromo-2-[3-ethylpiperidin-1-yl]-3-methylquinolin-4-yl}carbonyl)amino]-4-(2,5-difluorophenyl)pentanoic acid], the IC50 was found to be 3.2 nM.

Take `Cc1c(N2CC(F)(F)C2)nc2ccc(Br)cc2c1C(=O)NCC(CCC(=O)O)c1ccccc1Cl` (racemic) [Example 75, (+/−)-5-({[6-Bromo-2-(3,3-difluoroazetidin-1-yl)-3-methylquinolin-4-yl]carbonyl}amino)-4-(2-chlorophenyl)pentanoic acid]: the IC50 amounted to 120 nM.

Regarding `CCC1CCCN(c2nc3ccc(Br)cc3c(C(=O)NCC(CCC(=O)O)c3ccccc3Cl)c2C)C1` (single isomer, unassigned; (+)) [Example 58, (+)-5-[({6-Bromo-2-[3-ethylpiperidin-1-yl]-3-methylquinolin-4-yl}carbonyl)amino]-4-(2-chlorophenyl)pentanoic acid], the IC50 is 0.52 nM.

As for `CCC1CCCN(c2nc3ccc(Br)cc3c(C(=O)NCC(CCC(=O)O)c3ccccc3OC(F)(F)F)c2C)C1` (single isomer, unassigned; (-)) [Example 207, (−)-5-[({6-Bromo-2-[3-ethylpiperidin-1-yl]-3-methylquinolin-4-yl}carbonyl)amino]-4-[2-(trifluoromethoxy)phenyl]pentanoic acid], the IC50 stood at 22 nM.

As for `CCC1CCCN(c2nc3ccc(Br)cc3c(C(=O)NCC(CCC(=O)O)c3ccccc3C(F)(F)F)c2C)C1` (single isomer, unassigned) [Example 195, 5-[({6-Bromo-2-[3-ethylpiperidin-1-yl]-3-methylquinolin-4-yl}carbonyl)amino]-4-[2-(trifluoromethyl)phenyl]pentanoic acid], the IC50 was 77 nM.

`Cc1c(N2CCCC(F)(F)C2)nc2ccc(Br)cc2c1C(=O)NCC(CCC(=O)O)c1ccccc1C(F)(F)F` (racemic) [Example 117, (+/−)-5-({[6-Bromo-2-(3,3-difluoropiperidin-1-yl)-3-methylquinolin-4-yl]carbonyl}amino)-4-[2-(trifluoromethyl)phenyl]pentanoic acid]: the IC50 came out at 16 nM.

`Cc1c(N2CC=CCC2)nc2ccc(Br)cc2c1C(=O)NCC(CCC(=O)O)c1ccccc1Cl` (racemic) [Example 29, (+/−)-5-({[6-Bromo-2-(3,6-dihydropyridin-1(2H)-yl)-3-methylquinolin-4-yl]carbonyl}amino)-4-(2-chlorophenyl)pentanoic acid]: the IC50 came out at 22 nM.
